Measurements published in ChEMBL document CHEMBL5725801, “Fused heterocyclic compounds as CaM kinase inhibitors” (2018).
Values joined by “and” are separate entries in the source; they are usually repeats but may differ in a detail not shown here. Equal values may be shown once.

Assay: CaMKII Cell-Based Activity: CaMKII activity in neonatal rat ventricular myocytes (NRVM) was measured by monitoring the phosphorylation level of phospholamban using high-content imaging. NRVMs were plated in a clear bottom 384-well plate in medium supplemented with 10% fetal bovine serum (FBS) and incubated at 37° C., 5% CO2 overnight. The medium was changed to a serum-free medium and compounds were dosed to the cells. The cells were incubated at 37° C., 5% CO2 for 4 hours and were then treated with 100 nM ATX-II (Alomone Labs) to activate CaMKII. 10 minutes after the addition of ATX-II, the cells were fixed with 4% formaldehyde followed by permeabilization with 0.1% triton X100. The fixed cells were stained with an anti-phospho-phospholamban primary antibody (Santa Cruz Biotechnology) and an Alexa488-labeled anti-rabbit IgG secondary antibody (Life Technologies Corporation) as well as Hoechst 33342 (Life Technologies Corporation). The cells were imaged using an ArrayScan VTI (Cellomics) and analyzed for cells containing a positive fluorescent signal at 485 nm, reported as % responder. The % responders were plotted against the compound concentration to determine the compounds EC50.

Row | SMILES | EC50
1 | CCN(CC)CCNC(=O)c1ccnc(-c2cnn3ccc(-c4cccs4)nc23)c1 | 17.1 nM
2 | CCN(CC)[C@@H](C)CNC(=O)c1ccnc(-c2cnn3ccc(-c4cccs4)nc23)c1 | 21.4 nM
3 | CC(C)C(N)CNC(=O)c1ccnc(-c2cnn3ccc(-c4ccccc4)nc23)c1 (centres undefined) | 44.1 nM
4 | C[C@@H](CNC(=O)c1ccnc(-c2cnn3ccc(-c4cccs4)nc23)c1)NCCO | 301 nM
5 | O=C(NC[C@@H]1CCCN1)c1ccnc(-c2cnn3ccc(-c4cccs4)nc23)c1 | 125 nM
6 | CCN(CC)C(C)CNC(=O)c1ccnc(-c2cnn3ccc(-c4ccccc4)nc23)c1 (centres undefined) | 103 nM
7 | CC(C)NC(CNC(=O)c1ccnc(-c2cnn3ccc(-c4ccccc4)nc23)c1)C(C)C (centres undefined) | 152 nM
8 | CCC(CNC(=O)c1ccnc(-c2cnn3ccc(-c4cccs4)nc23)c1)NC(C)C (centres undefined) | 60 nM
9 | C[C@@H](CNC(=O)c1ccnc(-c2cnn3ccc(-c4cccs4)nc23)c1)NCCF | 95.2 nM
10 | O=C(NCC1CCCCN1)c1ccnc(-c2cnn3ccc(-c4cccs4)nc23)c1 (centres undefined) | 288 nM
11 | O=C(c1ccnc(-c2cnn3ccc(-c4ccccc4)nc23)c1)N1CCCCC12CCCNC2 (centres undefined) | 45.3 nM
12 | C[C@@H](CNC(=O)c1ccnc(-c2cnn3ccc(-c4ccccc4)nc23)c1)NCc1ncccn1 | 779 nM
13 | CCN(CC)[C@@H](C)CNC(=O)c1ccnc(-c2cnn3ccc(-c4ccccc4)nc23)c1 | 29 nM
14 | N[C@H]1CCC[C@@H]1NC(=O)c1ccnc(-c2cnn3ccc(-c4ccccc4)nc23)c1 | 287 nM
15 | CN(C)CCNC(=O)c1ccnc(-c2cnn3ccc(-c4ccccc4)nc23)c1 | 320 nM
16 | O=C(NC[C@@H]1C[C@H](F)CN1)c1ccnc(-c2cnn3ccc(-c4cccs4)nc23)c1 | 386 nM
17 | CCN(CC)[C@@H](CO)CNC(=O)c1ccnc(-c2cnn3ccc(-c4ccccc4)nc23)c1 | 61.9 nM
18 | CC[C@@]1(CNC(=O)c2ccnc(-c3cnn4ccc(-c5ccccc5)nc34)c2)CCCN1 | 279 nM
19 | CCC[C@@]1(CNC(=O)c2ccnc(-c3cnn4ccc(-c5cccs5)nc34)c2)CCCN1 | 99.2 nM
20 | CC[C@]1(CNC(=O)c2ccnc(-c3cnn4ccc(-c5ccccc5)nc34)c2)CCCN1 | 143 nM
21 | CCCN[C@@H](C)CNC(=O)c1ccnc(-c2cnn3ccc(-c4cccs4)nc23)c1 | 65.2 nM
22 | C[C@H](N)CNC(=O)c1ccnc(-c2cnn3ccc(-c4cccs4)nc23)c1 | 62.2 nM
23 | C[C@@H](CNC(=O)c1ccnc(-c2cnn3ccc(-c4cccs4)nc23)c1)NCC1CC1 | 15.1 nM

Row | SMILES | EC50
24 | O=C(NC[C@]1(CC2CC2)CCCN1)c1ccnc(-c2cnn3ccc(-c4cccs4)nc23)c1 | 66.9 nM
25 | CCCC(N)CNC(=O)c1ccnc(-c2cnn3ccc(-c4ccccc4)nc23)c1 (centres undefined) | 11.8 nM
26 | CC(CN)NC(=O)c1ccnc(-c2cnn3ccc(-c4ccccc4)nc23)c1 (centres undefined) | 175 nM
27 | CCN(CC)C(CNC(=O)c1ccnc(-c2cnn3ccc(-c4ccccc4)nc23)c1)C(C)C (centres undefined) | 37.2 nM
28 | O=C(NC[C@@H]1CCN1)c1ccnc(-c2cnn3ccc(-c4cccs4)nc23)c1 | 132 nM
29 | CCN[C@@H](C)CNC(=O)c1ccnc(-c2cnn3ccc(-c4cccs4)nc23)c1 | 33 nM
30 | CCC(N)CNC(=O)c1ccnc(-c2cnn3ccc(-c4ccccc4)nc23)c1 (centres undefined) | 80.9 nM
31 | CCN(CC(F)F)[C@@H](C)CNC(=O)c1ccnc(-c2cnn3ccc(-c4cccs4)nc23)c1 | 197 nM
32 | O=C(c1ccnc(-c2cnn3ccc(-c4cccs4)nc23)c1)N1CC2CCC(C1)NC2 (centres undefined) | 95.4 nM
33 | CCCC(CNC(=O)c1ccnc(-c2cnn3ccc(-c4ccccc4)nc23)c1)N(CC)CC (centres undefined) | 31.2 nM
34 | CCC(C)N[C@@H](C)CNC(=O)c1ccnc(-c2cnn3ccc(-c4ccccc4)nc23)c1 (some centres undefined) | 25.3 nM
35 | CCN(CC)C(C)CNC(=O)c1ccnc(-c2cnn3ccc(-c4cccs4)nc23)c1 (centres undefined) | 35.4 nM
36 | CC1(C)CNC1CNC(=O)c1ccnc(-c2cnn3ccc(-c4ccccc4)nc23)c1 (centres undefined) | 166 nM
37 | CC(C)C(CNC(=O)c1ccnc(-c2cnn3ccc(-c4ccccc4)nc23)c1)NCC1CC1 (centres undefined) | 88.8 nM
38 | C[C@@H](NC(=O)c1ccnc(-c2cnn3ccc(-c4cccs4)nc23)c1)[C@@H]1CCCN1 | 518 nM
39 | CCCNC(CC)CNC(=O)c1ccnc(-c2cnn3ccc(-c4ccccc4)nc23)c1 (centres undefined) | 8.15 nM
40 | CCN[C@H](CNC(=O)c1ccnc(-c2cnn3ccc(-c4ccccc4)nc23)c1)COc1ncccn1 | 45.9 nM
41 | O=C(NCC1CCCCCN1)c1ccnc(-c2cnn3ccc(-c4cccs4)nc23)c1 (centres undefined) | 347 nM
42 | CCC(CNC(=O)c1ccnc(-c2cnn3ccc(-c4ccccc4)nc23)c1)NCC1CC1 (centres undefined) | 76.7 nM
43 | CCN[C@@H](CO)CNC(=O)c1ccnc(-c2cnn3ccc(-c4ccccc4)nc23)c1 | 243 nM
44 | CCNC(C)(C)CNC(=O)c1ccnc(-c2cnn3ccc(-c4ccccc4)nc23)c1 | 67.4 nM
45 | CCN(CCN)C(=O)c1ccnc(-c2cnn3ccc(-c4ccccc4)nc23)c1 | 169 nM
46 | N[C@@H](CO)CNC(=O)c1ccnc(-c2cnn3ccc(-c4ccccc4)nc23)c1 | 334 nM

Row | SMILES | EC50
47 | CC(C)(N)CNC(=O)c1ccnc(-c2cnn3ccc(-c4ccccc4)nc23)c1 | 110 nM
48 | CC(C)N[C@@H](C)CNC(=O)c1ccnc(-c2cnn3ccc(-c4cccs4)nc23)c1 | 166 nM
49 | CN1CCC[C@H]1CNC(=O)c1ccnc(-c2cnn3ccc(-c4cccs4)nc23)c1 | 173 nM
50 | CCN[C@@H](C)CNC(=O)c1ccnc(-c2cnn3ccc(-c4ccccc4)nc23)c1 | 56.1 nM
51 | O=C(NC[C@H]1CCN1)c1ccnc(-c2cnn3ccc(-c4cccs4)nc23)c1 | 126 nM
52 | O=C(NCC1CCCCN1)c1ccnc(-c2cnn3ccc(-c4ccccc4)nc23)c1 (centres undefined) | 955 nM
53 | CCN[C@H](C)CNC(=O)c1ccnc(-c2cnn3ccc(-c4ccccc4)nc23)c1 | 73.1 nM
54 | CCN[C@H](C)CNC(=O)c1ccnc(-c2cnn3ccc(-c4cccs4)nc23)c1 | 34.8 nM
55 | CCN(CC)[C@H](CNC(=O)c1ccnc(-c2cnn3ccc(-c4ccccc4)nc23)c1)COc1ncccn1 | 47.3 nM
56 | CCNC(CC)CNC(=O)c1ccnc(-c2cnn3ccc(-c4ccccc4)nc23)c1 (centres undefined) | 46.8 nM
57 | N[C@@H]1CCC[C@H]1NC(=O)c1ccnc(-c2cnn3ccc(-c4ccccc4)nc23)c1 | 259 nM
58 | CC[C@@]1(CNC(=O)c2ccnc(-c3cnn4ccc(-c5cccs5)nc34)c2)CCCN1 | 129 nM
59 | C[C@@]1(CNC(=O)c2ccnc(-c3cnn4ccc(-c5cccs5)nc34)c2)CCCN1 | 142 nM
60 | CCC(N)CNC(=O)c1ccnc(-c2cnn3ccc(-c4cccs4)nc23)c1 (centres undefined) | 22.9 nM
61 | CCNC(CNC(=O)c1ccnc(-c2cnn3ccc(-c4ccccc4)nc23)c1)C(C)C (centres undefined) | 107 nM
62 | C[C@@H](CNC(=O)c1ccnc(-c2cnn3ccc(-c4cccs4)nc23)c1)NCC(F)F | 443 nM and 149 nM
63 | CCN[C@@H](CC)CNC(=O)c1ccnc(-c2cnn3ccc(-c4cccs4)nc23)c1 | 43.3 nM
64 | CN(C)CCNC(=O)c1ccnc(-c2cnn3ccc(-c4cccs4)nc23)c1 | 116 nM
65 | N[C@@H]1CCC[C@@H]1NC(=O)c1ccnc(-c2cnn3ccc(-c4ccccc4)nc23)c1 | 303 nM
66 | CC(C)C[C@@]1(CNC(=O)c2ccnc(-c3cnn4ccc(-c5cccs5)nc34)c2)CCCN1 | 66 nM
67 | CCCNC(CNC(=O)c1ccnc(-c2cnn3ccc(-c4ccccc4)nc23)c1)C(C)C (centres undefined) | 42.9 nM
68 | C[C@@H](CNC(=O)c1ccnc(-c2cnn3ccc(-c4cccs4)nc23)c1)NCC(F)(F)F | 717 nM
69 | O=C(NCC12CCCN1CCC2)c1ccnc(-c2cnn3ccc(-c4cccs4)nc23)c1 | 41.5 nM
